In test [1] the target is T1, human amylin receptor (amylin 3(a) receptor: human calcitonin receptor + RAMP-3) (Homo sapiens, UniProt O60896+P30988).
T1 construct: expressed in transfected cells
T1 sequence (P30988 25-474): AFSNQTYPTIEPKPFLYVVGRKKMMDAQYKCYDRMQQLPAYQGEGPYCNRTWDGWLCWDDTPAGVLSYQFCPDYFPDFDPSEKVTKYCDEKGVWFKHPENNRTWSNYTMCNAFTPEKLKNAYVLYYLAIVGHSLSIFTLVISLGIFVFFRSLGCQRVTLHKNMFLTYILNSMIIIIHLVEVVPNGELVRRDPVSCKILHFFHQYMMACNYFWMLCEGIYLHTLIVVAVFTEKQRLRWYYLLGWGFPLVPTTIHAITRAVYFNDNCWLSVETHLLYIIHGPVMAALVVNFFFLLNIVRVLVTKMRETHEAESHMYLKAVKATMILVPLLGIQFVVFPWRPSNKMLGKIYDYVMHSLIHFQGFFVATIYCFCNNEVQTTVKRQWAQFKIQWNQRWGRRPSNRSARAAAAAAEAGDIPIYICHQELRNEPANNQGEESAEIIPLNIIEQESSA
T1 sequence (O60896 24-148 partner): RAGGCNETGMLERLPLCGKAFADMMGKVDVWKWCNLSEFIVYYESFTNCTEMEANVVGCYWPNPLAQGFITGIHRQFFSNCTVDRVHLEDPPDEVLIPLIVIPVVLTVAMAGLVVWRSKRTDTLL
Nature of the test: Assay (II)a functional assay, human amylin receptor (CRE luciferase, BHK cells). The class given is cell-based.

Test [2] has as its target T2, human amylin receptor (Homo sapiens, UniProt O60896+P30988).
T2 construct: expressed in transfected cells
T2 sequence (P30988 25-474): T1 sequence (P30988 25-474)
T2 sequence (O60896 24-148 partner): T1 sequence (O60896 24-148 partner)
Nature of the test: Assay (V) binding to the human amylin receptor (SPA, 125I-rat amylin). As to the method:
The binding assay was performed using scintillation proximity assay (SPA) beads (RPNQ0001) from PerkinElmer and cell membranes from the Amylin 3(a)/CRE-luc cells (as described in Assay (II)) were used. Membranes were prepared in the following way; the cells were rinsed with PBS and incubated with Versene for approximately 5 min before harvesting. The cells were flushed with PBS and the cell-suspension was centrifuged for 5 min at 1000 rpm. […] The resulting pellet was resuspended in buffer 2 and protein concentration was measured (BCA protein Assay, Pierce). The homogenate was kept cold during the whole procedure. The membranes were kept at −80° C. until use. The assay was performed in a 384 well Optiplate (PerkinElmer) in a total volume of 40 ul. Membranes were mixed with SPA beads. Final concentration of membranes 35 ng/μL final and SPA beads was 0.05 mg/well. Test-compounds were dissolved in DMSO and further diluted in assay buffer (50 mM Hepes, pH 7.4, 1 mM CaCl2, 5 mM MgCl2, 0.1% OA and 0.02% Tween20). […] Samples were analyzed on TopCounter™ (Packard). The IC50 was calculated using (one site binding competition analysis) GraphPad Prism5 as a measure of receptor affinity.

Setting [3] is: Table 6, human functional selectivity (hCTR EC50 / hAmylin-R EC50).
Where [4] appears, read: human binding ratio, included for comparison.
Setting [5] is: Table 6a, human functional selectivity (hCTR EC50 / hAmylin-R EC50), at least 5.

Numbered stars: 1 amine (or outer) side, 2 acyl side, 3 side chain; on linkers, the order of the positions; unused ones are H or OH. Bridge positions count the residues as written; N and C are the ends. Side chains are listed from the residue outwards. Peptide text beside a SMILES is read from it. * marks the point of attachment. C20 diacid = O=C(O)CCCCCCCCCCCCCCCCCCC(=O)*; γGlu = O=C(O)[C@H](CCC(=O)[*:2])N[*:1]

With `CC[C@H](C)[C@H](NC(=O)[C@H](C)NC(=O)CNC(=O)[C@H](Cc1ccccc1)NC(=O)[C@H](CC(N)=O)NC(=O)[C@@H]1CCCN1C(=O)[C@H](CO)NC(=O)[C@H](CO)NC(=O)[C@H](Cc1c[nH]cn1)NC(=O)[C@H](CCCNC(=N)N)NC(=O)[C@H](CC(C)C)NC(=O)[C@H](Cc1ccccc1)NC(=O)[C@H](CCC(=O)O)NC(=O)[C@H](C)NC(=O)[C@H](CC(C)C)NC(=O)[C@H](CCCNC(=N)N)NC(=O)[C@H](CCC(N)=O)NC(=O)[C@@H](NC(=O)[C@H](C)NC(=O)[C@@H]1CSSC[C@H](NC(=O)[C@H](CCCCN)NC(=O)CC[C@H](NC(=O)CCCCCCCCCCCCCCCCCCC(=O)O)C(=O)O)C(=O)N[C@@H](CC(N)=O)C(=O)N[C@@H]([C@@H](C)O)C(=O)N[C@@H](C)C(=O)N[C@@H]([C@@H](C)O)C(=O)N1)[C@@H](C)O)C(=O)N1CCC[C@H]1C(=O)N[C@@H](CO)C(=O)N[C@@H](CO)C(=O)N[C@H](C(=O)N[C@@H](CC(N)=O)C(=O)N[C@H](C(=O)NCC(=O)N[C@@H](CO)C(=O)N[C@@H](CC(N)=O)C(=O)N[C@H](C(=O)N1CCC[C@H]1C(N)=O)[C@@H](C)O)C(C)C)[C@@H](C)O` [Example 8] ({C20 diacid-γGlu}-KCNTATCATQRLAEFLRHSSPNFGAIPSSTNVGSNTP-NH2; disulfide 2-7), the “Ratio hCT/hAmylin funct.” value in test [1] (setting [3]) came out at 1.1. In addition, the “Ratio hCT/hAmylin binding” value in test [2] (setting [4]) came out at 0.5.

Consider `CC[C@H](C)[C@H](NC(=O)[C@H](C)NC(=O)CNC(=O)[C@H](Cc1ccccc1)NC(=O)[C@H](CC(N)=O)NC(=O)[C@H](CCCCNC(=O)CC[C@H](NC(=O)CC[C@H](NC(=O)CCCCCCCCCCCCCCCCCCC(=O)O)C(=O)O)C(=O)O)NC(=O)[C@H](CO)NC(=O)[C@H](CO)NC(=O)[C@H](Cc1c[nH]cn1)NC(=O)[C@H](CCCNC(=N)N)NC(=O)[C@H](CC(C)C)NC(=O)[C@H](Cc1ccccc1)NC(=O)[C@H](CC(=O)O)NC(=O)[C@H](C)NC(=O)[C@H](CC(C)C)NC(=O)[C@H](CCCNC(=N)N)NC(=O)[C@H](CCC(N)=O)NC(=O)[C@@H](NC(=O)[C@H](C)NC(=O)[C@@H]1CSSC[C@H](NC(=O)[C@@H](N)CCCCN)C(=O)N[C@@H](CC(N)=O)C(=O)N[C@@H]([C@@H](C)O)C(=O)N[C@@H](C)C(=O)N[C@@H]([C@@H](C)O)C(=O)N1)[C@@H](C)O)C(=O)N1CCC[C@H]1C(=O)N[C@@H](CO)C(=O)N[C@@H](CO)C(=O)N[C@H](C(=O)N[C@@H](CC(N)=O)C(=O)N[C@H](C(=O)NCC(=O)N[C@@H](CO)C(=O)N[C@@H](CC(=O)O)C(=O)N[C@H](C(=O)N[C@@H](Cc1ccc(O)cc1)C(N)=O)[C@@H](C)O)C(C)C)[C@@H](C)O` [Example 59] (H-KCNTATCATQRLADFLRHSSK([γGlu-γGlu-C20 diacid])NFGAIPSSTNVGSDTY-NH2; disulfide 2-7; N-terminus assumed), for which the “Ratio hCT/hAmylin funct.” value in test [1] (setting [3]) and in test [1] (setting [5]) was 5.0 throughout. For the same compound, the “Ratio hCT/hAmylin binding” value in test [2] (setting [4]) was 4.3.

Turning to `CC[C@H](C)[C@H](NC(=O)[C@H](C)NC(=O)CNC(=O)[C@H](Cc1ccccc1)NC(=O)[C@H](CC(N)=O)NC(=O)[C@@H]1CCCN1C(=O)[C@H](CO)NC(=O)[C@H](CO)NC(=O)[C@H](Cc1c[nH]cn1)NC(=O)[C@H](CCCNC(=N)N)NC(=O)[C@H](CC(C)C)NC(=O)[C@H](Cc1ccccc1)NC(=O)[C@H](CCC(=O)O)NC(=O)[C@H](C)NC(=O)[C@H](CC(C)C)NC(=O)[C@H](CCCNC(=N)N)NC(=O)[C@H](CCC(N)=O)NC(=O)[C@@H](NC(=O)[C@H](C)NC(=O)[C@@H]1CSSC[C@H](NC(=O)[C@H](CCCCN)NC(=O)CC[C@H](NC(=O)CC[C@H](NC(=O)CCCCCCCCCCCCCCCCCCC(=O)O)C(=O)O)C(=O)O)C(=O)N[C@@H](CC(N)=O)C(=O)N[C@@H]([C@@H](C)O)C(=O)N[C@@H](C)C(=O)N[C@@H]([C@@H](C)O)C(=O)N1)[C@@H](C)O)C(=O)N1CCC[C@H]1C(=O)N[C@@H](CO)C(=O)N[C@@H](CO)C(=O)N[C@H](C(=O)N[C@@H](CC(N)=O)C(=O)N[C@H](C(=O)NCC(=O)N[C@@H](CO)C(=O)N[C@@H](CC(N)=O)C(=O)N[C@H](C(=O)N[C@@H](Cc1ccc(O)cc1)C(N)=O)[C@@H](C)O)C(C)C)[C@@H](C)O` [Example 15] ({C20 diacid-γGlu-γGlu}-KCNTATCATQRLAEFLRHSSPNFGAIPSSTNVGSNTY-NH2; disulfide 2-7), the “Ratio hCT/hAmylin funct.” value in test [1] (setting [3]) turned out to be 8.9; in test [1] (setting [5]), 8.9; in test [1] (Table 6i, hCTR funct. EC50 / hAmylin-R funct. EC50), 8.9; in test [1] (Table 6j, hCTR funct. EC50 / hAmylin-R funct. EC50), 8.9; in test [1] (Table 6k, hCTR funct. EC50 / hAmylin-R funct. EC50), 8.9. For the same compound, the “Ratio hCT/hAmylin binding” value was determined as 26.0 in test [2] (Table 7b, human calcitonin receptor binding IC50 divided by human amylin receptor binding IC50); 26.0 in test [2] (Table 7c, human calcitonin receptor binding IC50 divided by human amylin receptor binding IC50); 26.0 in test [2] (setting [4]).

Regarding `CC[C@H](C)[C@H](NC(=O)[C@H](C)NC(=O)CNC(=O)[C@H](Cc1ccccc1)NC(=O)[C@H](CC(N)=O)NC(=O)[C@@H]1CCCN1C(=O)[C@H](CO)NC(=O)[C@H](CO)NC(=O)[C@H](Cc1c[nH]cn1)NC(=O)[C@H](CCCNC(=N)N)NC(=O)[C@H](CC(C)C)NC(=O)[C@H](Cc1ccccc1)NC(=O)[C@H](CCC(=O)O)NC(=O)[C@H](C)NC(=O)[C@H](CC(C)C)NC(=O)[C@H](CCCNC(=N)N)NC(=O)[C@H](CCC(N)=O)NC(=O)[C@@H](NC(=O)[C@H](C)NC(=O)[C@@H]1CSSC[C@H](NC(=O)[C@H](CCCCN)NC(=O)CC[C@H](NC(=O)CCCCCCCCCCCCCCCCCCC(=O)O)C(=O)O)C(=O)N[C@@H](CC(N)=O)C(=O)N[C@@H]([C@@H](C)O)C(=O)N[C@@H](C)C(=O)N[C@@H]([C@@H](C)O)C(=O)N1)[C@@H](C)O)C(=O)N1CCC[C@H]1C(=O)N[C@@H](CO)C(=O)N[C@@H](CO)C(=O)N[C@H](C(=O)N[C@@H](CC(N)=O)C(=O)N[C@H](C(=O)NCC(=O)N[C@@H](CO)C(=O)N[C@@H](CC(=O)O)C(=O)N[C@H](C(=O)N1CCC[C@H]1C(N)=O)[C@@H](C)O)C(C)C)[C@@H](C)O` [Example 11] ({C20 diacid-γGlu}-KCNTATCATQRLAEFLRHSSPNFGAIPSSTNVGSDTP-NH2; disulfide 2-7), in test [1] (setting [3]), the “Ratio hCT/hAmylin funct.” value was 0.9. The “Ratio hCT/hAmylin binding” value in test [2] (setting [4]) was found to be 1.0.

Turning to `CC[C@H](C)[C@H](NC(=O)[C@H](C)NC(=O)CNC(=O)[C@H](Cc1ccccc1)NC(=O)[C@H](CC(N)=O)NC(=O)[C@@H]1CCCN1C(=O)[C@H](CO)NC(=O)[C@H](CO)NC(=O)[C@H](Cc1c[nH]cn1)NC(=O)[C@H](CCCNC(=N)N)NC(=O)[C@H](CC(C)C)NC(=O)[C@H](Cc1ccccc1)NC(=O)[C@H](CC(=O)O)NC(=O)[C@H](C)NC(=O)[C@H](CC(C)C)NC(=O)[C@H](CCCNC(=N)N)NC(=O)[C@H](CCC(N)=O)NC(=O)[C@@H](NC(=O)[C@H](C)NC(=O)[C@@H]1CSSC[C@H](NC(=O)[C@H](CCCCN)NC(=O)CC[C@H](NC(=O)CCCCCCCCCCCCCCCCCCC(=O)O)C(=O)O)C(=O)N[C@@H](CC(N)=O)C(=O)N[C@@H]([C@@H](C)O)C(=O)N[C@@H](C)C(=O)N[C@@H]([C@@H](C)O)C(=O)N1)[C@@H](C)O)C(=O)N1CCC[C@H]1C(=O)N[C@@H](CO)C(=O)N[C@@H](CO)C(=O)N[C@H](C(=O)N[C@@H](CC(N)=O)C(=O)N[C@H](C(=O)NCC(=O)N[C@@H](CO)C(=O)N[C@@H](CC(N)=O)C(=O)N[C@H](C(=O)N1CCC[C@H]1C(N)=O)[C@@H](C)O)C(C)C)[C@@H](C)O` [Example 10] ({C20 diacid-γGlu}-KCNTATCATQRLADFLRHSSPNFGAIPSSTNVGSNTP-NH2; disulfide 2-7), the “Ratio hCT/hAmylin funct.” value in test [1] (setting [3]) amounted to 1.0. Also, the “Ratio hCT/hAmylin binding” value in test [2] (setting [4]) turned out to be 1.2.
